Tested on: IRAK4
Assay: Pharmacodynamics (PD) in Male Cynomolgus Monkeys, IRAK4 quantitation in PBMCs by MSD
Format: in vivo
Details: male cynomolgus monkey PBMCs
Protocol: Assay 6. Pharmacodynamics (PD) in Male Cynomolgus Monkeys
For PBMC isolation, approximately 1 mL of blood sample was collected in a BD Vacutainer® EDTA Tubes (Catalog no. 36643, Becton, Dickinson and Co., Franklin Lakes, NJ, USA) with K2-EDTA and stored at room temperature (RT). The blood was diluted 1:1 with PBS at room temperature. The tube contents were mixed gently by pipetting up and down 5 times. The PBS/blood mixture was layered carefully on the top of 2 ml Ficoll® Paque Plus (Catalog no. 17-1440-03, Cytiva, Marlborough, MA, USA) in 15 mL falcon tubes, then centrifuged at RT for 30 minutes at 600 g with acceleration set at 6 and brake set at 0. The middle ‘cloudy’ interface between plasma and Ficoll® Paque Plus containing the PBMCs was transferred to a 15 mL tube and washed once with 10 mL of PBS, then centrifuged for 10 minutes at RT at 250 g. The supernatant was discarded without disturbing the cell pellet. If red blood cells were still present, 1 mL of lysis buffer was added, incubated for 2 minutes at RT, then 10 mL PBS was added to terminate lysis, and then centrifuged for 5 minutes at RT at 250 g. The supernatant was discarded without disturbing the cell pellet and stored at −80° C. until analysis.
For cell counting, the cell suspension was diluted 1:1 with Trypan Blue dye and mixed well. The cell numbers (live and dead) were counted, and cell viability calculated. The cell numbers and cell viability of each PBMC sample were recorded.
For sample preparation for MSD analysis, 2 million cells were subjected to lysis by 100 μL of RIPA lysis and extraction buffer (Catalog no 89900, ThermoScientific, Waltham, MA, USA) with phosphatase and protease inhibitors were added for 30 minutes at 4° C. To prepare RIPA lysis and extraction buffer with phosphatase and protease inhibitors, 1 tablet of cOmplete™, 1 tablet of PhosSTOP™, 100 μL each of Phosphatase Inhibitor Cocktail 2 and 3 (all catalog no. 11836153001, 4906845001, P5726 and P0044 respectively, Sigma Aldrich, St. Louis, MO, USA) were mixed with 10 mL RIPA buffer. The lysed PBMC samples were stored at −80° C. until analysis. Samples were completely thawed before being subjected to MSD analysis. The data was normalized using protein concentration and PBMC cell numbers, separately, for comparison.
For biomarker detection of IRAK4 in samples, MSD® or Meso Scale Discovery® biomarker assays technology was utilized, which is an ELISA-based method.
For the capture or coating step, 100 μL of IRAK4 Monoclonal Antibody (2H9) (Fisher, Catalog no. MA5-15883) was added to 96 well MSD multi-array 96 well plate (MSD Catalog no. L15XA-3, MSD multi-array 96 well plate). The plate was sealed and incubated overnight at 2-8° C. The plate was washed 5×300 μL/well with tris buffered saline wash buffer. 300 μL of blocking Buffer (3% BSA in 0.1% PBST) (Wuxi, Catalog no. BB-20211112-YJC) was added. The plate was sealed and incubated for 2 h±10 minutes at room temperature without shaking. The plate was washed 5×300 μL/well with tris buffered saline wash buffer. 100 μL of standard and samples were added into each well. The plate was sealed and incubated for 1 h 10 minutes at room temperature with shaking at 500 rpm. The plate was washed 5×300 μL/well with tris buffered saline wash buffer. 100 μL of detection solution containing IRAK4 antibody (Catalog no. 4363, Cell Signaling Technology, Danvers, MA, USA) was added into each well. The plate was sealed and incubated for 1 h 10 min at RT with shaking at 500 RPM. The plate was washed 5×300 μL/well with tris buffered saline wash buffer. 100 μL of sulfotag solution containing Sulfo-Tag labeled anti-rabbit antibody (Goat) (Catalog no. R32AB-1, Meso Scale Diagnostics, Rockville, MD, USA) was added into each well. The plate was sealed and incubated for 1 h+10 minutes at room temperature with shaking at 500 RPM. The plate was washed 5×300 […] with tris buffered saline wash buffer. […]

Row | SMILES | IRAK4 change from vehicle (time 2 h) [%] | IRAK4 change from vehicle (time 8 h) [%] | IRAK4 change from vehicle (time 24 h) [%] | IRAK4 change from vehicle (time 48 h) [%] | IRAK4 change from vehicle (time 72 h) [%] | IRAK4 change from vehicle (time 96 h) [%]
1 | CC(C)Oc1cc2nc([C@H]3CC[C@H](CN4CCC(c5ccc6c(c5)n(C)c(=O)n6C5CCC(=O)NC5=O)CC4)CC3)cn2cc1C(=O)Nc1cnn2cccnc12 (stereo partly drawn) [Compound 48, 2-[4-[[4-[1-(2,6-dioxo-3-piperidyl)-3-methyl-2-oxo-benzimidazol-5-yl]-1-piperidyl]methyl]cyclohexyl]-7-isopropoxy-N-pyrazolo[1,5-a]pyrimidin-3-yl-imidazo[1,2-a]pyridine-6-carboxamide] | −50 | −87 | −96 | −94 | −94 | −87
2 | CC(C)Oc1cc2nc([C@H]3CC[C@H](CN4CCC(c5ccc6c(c5)n(C)c(=O)n6C5CCC(=O)NC5=O)CC4)CC3)cn2cc1C(=O)Nc1cccn([C@H]2C[C@H]2F)c1=O (stereo partly drawn) [Compound 169, 2-((1R,4S)-4-((4-(1-(2,6-dioxopiperidin-3-yl)-3-methyl-2-oxo-2,3-dihydro-1H-benzo[d]imidazol-5-yl)piperidin-1-yl)methyl)cyclohexyl)-N-(1-((1S,2R)-2-fluorocyclopropyl)-2-oxo-1,2-dihydropyridin-3-yl)-7-isopropoxyimidazo[1,2-a]pyridine-6-carboxamide] | −62 | −83 | −97 | −97 | −94 | −90

From patent publication US20240343733A1, “COMPOUNDS FOR TARGETING DEGRADATION OF IRAK4 PROTEINS” (BIOGEN MA INC., priority 2021, published 2024)
